Measurements taken from the NIST ThermoML archive (doi:10.1016/j.tca.2011.12.021).

Tests used:
[1] = 101.3 kPa, Crystal, Hot wire method
[2] = wn = mass fraction of the nth substance listed; conditions: 101 kPa, Crystal, Hot wire method

CC(C)(CO)CO [2,2-dimethyl-1,3-propanediol]
[1]
Conditions | thermal conductivity [W/m/K]
323 K | 0.4
333 K | 0.38
343 K | 0.36
353 K | 0.33
363 K | 0.32
373 K | 0.29
383 K | 0.3
393 K | 0.31

CC(C)(CO)CO [2,2-dimethyl-1,3-propanediol] + CC1(C)[C@@H]2CC[C@@]1(C)C(=O)C2
[2]
Conditions | thermal conductivity [W/m/K]
298 K, w2 = 0.7 | 0.35
303 K, w2 = 0.03 | 0.38
303 K, w2 = 0.3 | 0.37
303 K, w2 = 0.7 | 0.34
303 K, w2 = 0.96 | 0.3
308 K, w2 = 0.3 | 0.36
308 K, w2 = 0.7 | 0.34
313 K, w2 = 0.03 | 0.37
313 K, w2 = 0.3 | 0.35
313 K, w2 = 0.7 | 0.33
313 K, w2 = 0.96 | 0.3
315 K, w2 = 0.7 | 0.33
317 K, w2 = 0.7 | 0.33
318 K, w2 = 0.3 | 0.34
319 K, w2 = 0.7 | 0.32
321 K, w2 = 0.7 | 0.32
323 K, w2 = 0 | 0.4
323 K, w2 = 0.03 | 0.36
323 K, w2 = 0.3 | 0.33
323 K, w2 = 0.7 | 0.32
323 K, w2 = 0.96 | 0.3
325 K, w2 = 0.7 | 0.31
328 K, w2 = 0.3 | 0.32
328 K, w2 = 0.7 | 0.31
333 K, w2 = 0 | 0.38
333 K, w2 = 0.03 | 0.35
333 K, w2 = 0.3 | 0.31
333 K, w2 = 0.7 | 0.31
333 K, w2 = 0.96 | 0.29
338 K, w2 = 0.7 | 0.31
343 K, w2 = 0 | 0.36
343 K, w2 = 0.03 | 0.34
343 K, w2 = 0.7 | 0.31
343 K, w2 = 0.96 | 0.29
348 K, w2 = 0.7 | 0.3
353 K, w2 = 0 | 0.33
353 K, w2 = 0.03 | 0.32
353 K, w2 = 0.7 | 0.3
353 K, w2 = 0.96 | 0.29
358 K, w2 = 0.7 | 0.29
363 K, w2 = 0 | 0.32
363 K, w2 = 0.7 | 0.28
363 K, w2 = 0.96 | 0.28
373 K, w2 = 0 | 0.29
373 K, w2 = 0.96 | 0.28
383 K, w2 = 0 | 0.3
383 K, w2 = 0.96 | 0.28
393 K, w2 = 0 | 0.31
393 K, w2 = 0.96 | 0.27
403 K, w2 = 0.96 | 0.27
413 K, w2 = 0.96 | 0.26
423 K, w2 = 0.96 | 0.26
433 K, w2 = 0.96 | 0.25
